Here are results for one compound from patent US4368267A, “Epoxidation of lower α-olefins” (priority 1980, dated 1983).

Common to all, as to type: cell-based
Test [1] deals with Methylosinus trichosporium OB3b (NRRL B-11,196). The test is described as follows: Stoichiometry of the epoxidation of propylene by a cell-suspension. Conditions: 3.6 μmoles propylene; 3.1 mg protein; 3 min. As to the method:
As a comparison the stoichiometry of the epoxidation of propylene by a cell-suspension of Methylosinus trichosporium OB3b (NRRL B-11,196) was determined as follows. The reaction mixture (3.0 ml.) contained 0.05 M sodium phosphate buffer, pH 7.0 and 3.6 μmoles of propylene. The reaction was initiated by the injection of 0.1 ml. of cell-suspension (3.1 mg protein). A correction was made for the endogenous consumption of oxygen. The amount of oxygen consumed during the reaction (3 min.) was determined polarographically with a Clark oxygen electrode. The propylene consumed and the propylene oxide formed was estimated by gas chromatography. The propylene consumed was 0.29 μmoles, the oxygen consumed was 0.30 μmoles and the propylene oxide formed was 0.28 μmoles.

The test system of test [2] is Methylobacterium organophilum (CRL 26, NRRL B-11,222). The test is described as follows: Epoxidation/hydroxylation by washed cell suspensions. The following applies: propylene alone. As to the method:
(§1) The pH of the nutrient medium was adjusted to 7.0 by the addition of acid or base and 50 ml aliquots of the nutrient medium was charged into a plurality of 300 ml shake flasks. The shake flasks were inoculated with an inoculating loop of cells from an agar plate containing homogeneous colonies of the microorganisms on the plate (the purity of the isolates were confirmed by microscopic examination). The isolates had been maintained on agar plates under an atmosphere of methane and air having a 1:1 v/v gas ratio which had been transferred every two weeks. The gaseous phase of the inoculated flasks was then replaced with a gas mixture comprised of methane and air having a ratio of 1:1 on a v/v basis. The inoculated flasks were sealed air tight and were incubated on a rotary shaker of orbital radius 2.5 cm at 250 rpm and at 30° C. for two days until the turbidity in the medium had developed.
(§2) The cells were harvested by centrifugation at 10,000 ×g at 4° C. for 30 minutes. The cell pellet was washed twice with a 0.15 M phosphate buffer at a pH of 7.0 (containing 0.002 M MgCl2). The washed cells were then suspended in a 0.15 M phosphate buffer at pH 7.0.
(§3) A 0.5 ml aliquot of each washed cell suspension (2 mg cells) was put into 10 ml vials at 4° C. which were sealed with a rubber cap. The gaseous phase of the vials was removed with vacuum and then was replaced with a gas mixture of alkene and oxygen at a 1:1 v/v ratio. It was then incubated at 30° C. on a rotary shaker at 300 rpm. Samples of product (3 μl) were withdrawn periodically with a microsyringe and the products were analyzed by gas chromatography (ionization flame detector column).
Several experiments were carried out using a plurality of compounds capable of generating the necessary reducing power (NADH2 or NADPH2) required for the epoxidation of alkenes or dienes. These experiments were carried out using cell suspensions of methane grown methylotrophs using the procedure as described in Example 1 except that a stimulator compound was added to the reaction medium.

Test [3] has as its system Methylococcus capsulatus (CRL M1, NRRL B-11,219). The test is described as follows: Oxidation/epoxidation by washed cell suspensions. Conditions: propylene alone (control); 3 Hr. As to the method:
as §1, with “The shake flasks were inoculated with an inoculating loop of cells from an agar plate containing homogeneous colonies of the microorganisms on the plate (the purity of the isolates were confirmed by microscopic examination).” left out
as §2, §3
The experimental procedure described in Example 1 was used to prepare washed cell suspensions of methane-grown microorganisms and the use of the same to oxidize or epoxidize the branched chain alkanes, alkenes and dienes.

For test [4], the system named is Methylobacter capsulatus Y (NRRL B-11,201). The test is described as follows: Methane hydroxylation and propylene epoxidation by washed cell suspensions. As to the method: as §1, §2
A 0.5 ml aliquot of each washed cell suspension (2 mg cells) was put into 10 ml vials at 4° C. which were sealed with a rubber cap. […] It was then incubated at 30° C. on a rotary shaker at 300 rpm. Samples of product (3 μl) were withdrawn periodically with a microsyringe and the products were analyzed by gas chromatography (ionization flame detector column).
Several experiments were carried out using a plurality of compounds capable of generating the necessary reducing power (NADH2 or NADPH2) required for the epoxidation of alkenes or dienes. […]

As to `C=CC` [Propylene], in test [1], the Propylene Oxide Formed worked out at 0.28 µmol, the oxygen consumed was determined as 0.30 µmol and the propylene consumed amounted to 0.29 µmol. In addition, in test [2], the “Rate of Product Formation (Propylene Oxide)” value was found to be 10 nmoles/hr/mg protein. Further, the “Epoxidation Rate, Propylene oxide” value in test [3] is 3.9 μmoles/0.5 ml. For the same compound, the “Conversion rate, propylene to propylene oxide” value in test [4] (methane-grown washed cells, 30° C.) is recorded as 1.5 μmole/hr/mg protein. The “Rate of Product Formation (Propylene Oxide)” value in test [4] (propylene alone) worked out at 2 nmoles/hr/mg protein.
